Data reported in US7528140B2, “Substituted pyrrolo[3,2-d]pyrimidines as glycogen synthase kinase (GSK) inhibitors” (Teijin Limited, priority 2002, dated 2009).

Molecular target: recombinant human GSK-3β (Homo sapiens, UniProt P49841)
Assay: Measurement of GSK-3 enzyme activity inhibition (32P phosphorylation of phospho-glycogen synthase peptide-2)
Type: biochemical
Conditions: 20 μM ATP, 20 minutes at room temperature, read-out: GSK-3 enzyme inhibiting activity (IC50)
Method: Measurement of GSK-3 Enzyme Activity Inhibition
After adding 25 μL of phospho-glycogen synthase peptide-2 substrate solution [6 μM phospho -glycogen synthase peptide-2, 20 μM ATP, 16 mM MOPS buffer (pH 7.0), 0.2 mM EDTA, 20 mM magnesium acetate, 0.1 μCi [γ-^32P]ATP (specific activity: approximately 110 TBq/mmol)]to 5 μL of the test compound using 5% dimethylsulfoxide as the solvent, reaction was initiated by further addition of 20 μL of a GSK-3β enzyme solution [10 mU recombinant human GSK-3β, 20 mM MOPS buffer (pH 7.0), 1 mM EDTA, 0.1% polyoxyethylene lauryl ether (23 Lauryl Ether; Brij 35), 5% glycerol, 0.1% β-mercaptoethanol]. After conducting the reaction for 20 minutes at room temperature, an equivalent volume of a 200 mM phosphoric acid solution was added to quench the reaction, and 90 μL of the reaction product was adsorbed onto a MultiScreen PH plate (Millipore) and rinsed with a 100 mM phosphoric acid solution. After drying the plate, 30 μL of Micro Scint-O (Packard BioScience) was added, and the cpm was measured with a scintillation counter to determine the inhibiting activity. Phospho GS Peptide2 is […]P)-Glu-Asp-Glu-Glu-Glu (SEQ ID NO:1).

Chain of recombinant human GSK-3β (P49841 whole entry): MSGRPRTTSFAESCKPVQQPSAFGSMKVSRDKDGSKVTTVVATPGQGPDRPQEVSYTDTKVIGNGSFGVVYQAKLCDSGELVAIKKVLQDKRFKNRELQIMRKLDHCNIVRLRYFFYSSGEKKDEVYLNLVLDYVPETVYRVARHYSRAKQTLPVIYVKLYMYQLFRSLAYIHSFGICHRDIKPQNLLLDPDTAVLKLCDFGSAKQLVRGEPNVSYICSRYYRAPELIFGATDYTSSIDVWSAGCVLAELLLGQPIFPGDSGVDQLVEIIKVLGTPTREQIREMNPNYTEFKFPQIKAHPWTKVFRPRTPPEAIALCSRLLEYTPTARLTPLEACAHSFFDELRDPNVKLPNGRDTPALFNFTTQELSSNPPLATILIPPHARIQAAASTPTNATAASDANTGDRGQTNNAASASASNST

| SMILES | IC50 |
| --- | --- |
| CC(C)CCn1c(-c2ccccc2)c(C#N)c2nc[nH]c(=S)c21 [1-0114] | 1000 to 10000 nM |
| N#Cc1c(C=Cc2ccccc2)[nH]c2c(=O)[nH]cnc12 [1-0006] | 1000 to 10000 nM |
| N#Cc1c(-c2ccccc2Br)[nH]c2c(=S)[nH]cnc12 [1-0751, 6-(2-bromophenyl)-4-thioxo-3-hydropyrrolo[3,2-d]pyrimidine-7-carbonitrile] | 30 to 100 nM |
| CC(C)CCn1c(-c2ccccc2)c(C#N)c2nc[nH]c(=O)c21 [1-0113] | 1000 to 10000 nM |
| COCCn1c(-c2ccccc2)c(C#N)c2nc[nH]c(=S)c21 [1-0208] | 1000 to 10000 nM |
| N#Cc1c(-c2ccccc2)n(CCCO)c2c(=O)[nH]cnc12 [1-0194] | 1000 to 10000 nM |
| N#Cc1cn(Cc2ccccc2)c2c(=S)[nH]cnc12 [1-0301] | 1000 to 10000 nM |
| CC(C)OCCCn1c(-c2cc(O)cc(O)c2)c(C#N)c2nc[nH]c(=S)c21 [1-0529, 6-(3,5-dihydroxyphenyl)-5-[3-(methylethoxy)propyl]-4-thioxo-3-hydropyrrolo[3,2-d]pyrimidine-7-carbonitrile] | 10 to 30 nM |
| CCCCCn1c(-c2ccccc2)c(C#N)c2nc[nH]c(=O)c21 [1-0132] | 1000 to 10000 nM |
| N#Cc1c(-c2c(F)cccc2F)n(CCN)c2c(=S)[nH]cnc12 [1-0460, 5-(2-aminoethyl)-6-(2,6-difluorophenyl)-4-thioxo-3-hydropyrrolo[3,2-d]pyrimidine-7-carbonitrile] | 1000 to 10000 nM |
| COCCCn1c(-c2ccccc2)c(C#N)c2nc[nH]c(=O)c21 [1-0227] | 1000 to 10000 nM |
| N#Cc1c(-c2ccccc2)n(CCc2nc(-c3ccccc3)no2)c2c(=S)[nH]cnc12 [1-0495, 6-phenyl-5-[2-(3-phenyl(1,2,4-oxadiazol-5-yl))ethyl]-4-thioxo-3-hydropyrrolo[3,2-d]pyrimidine-7-carbonitrile] | 1000 to 10000 nM |
| N#Cc1c(-c2ccccc2)[nH]c2c(=O)[nH]cnc12 [1-0007] | 1000 to 10000 nM |
| N#Cc1c(-c2ccccc2N)[nH]c2c(=S)[nH]cnc12 [1-0753, 6-(2-aminophenyl)-4-thioxo-3-hydropyrrolo[3,2-d]pyrimidine-7-carbonitrile] | 1000 to 10000 nM |
| CCOCCn1c(-c2ccccc2)c(C#N)c2nc[nH]c(=S)c21 [1-0215] | 1000 to 10000 nM |
| N#Cc1c(-c2ccccc2)n(CC2CC2)c2c(=S)[nH]cnc12 [1-0275] | 1000 to 10000 nM |
| COc1ccccc1-c1[nH]c2c(=O)[nH]cnc2c1C#N [1-0038, 6-(2-methoxyphenyl)-4-oxo-3-hydropyrrolo[3,2-d]pyrimidine-7-carbonitrile] | 1000 to 10000 nM |
| N#Cc1c(-c2ccccc2)n(CCc2ccccc2)c2c(=S)[nH]cnc12 [1-0312] | 1000 to 10000 nM |
| N#Cc1c(-c2ccccc2Br)[nH]c2c(=O)[nH]cnc12 [1-1040, 6-(2-bromophenyl)-4-oxo-3-hydropyrrolo[3,2-d]pyrimidine-7-carbonitrile] | 1000 to 10000 nM |
| N#Cc1c(-c2ccccc2)n(CCCc2ccccc2)c2c(=O)[nH]cnc12 [1-0320] | 1000 to 10000 nM |
| N#Cc1c(-c2cccc(O)c2)[nH]c2c(=S)[nH]cnc12 [1-0698, 6-(3-hydroxyphenyl)-4-thioxo-3-hydropyrrolo[3,2-d]pyrimidine-7-carbonitrile] | 10 to 30 nM |
| N#Cc1c(C2CC2)n(Cc2ccccc2)c2c(=O)[nH]cnc12 [1-0303] | 1000 to 10000 nM |
| N#Cc1c(-c2ccccc2)n(CCN2C(=O)c3ccccc3C2=O)c2c(=S)[nH]cnc12 [1-0501, 5-[2-(1,3-dioxoisoindolin-2-yl)ethyl]-6-phenyl-4-thioxo-3-hydropyrrolo[3,2-d]pyrimidine-7-carbonitrile] | 1000 to 10000 nM |
| CSCCCn1c(-c2ccccc2)c(C#N)c2nc[nH]c(=O)c21 [1-0263] | 1000 to 10000 nM |
| CC(C)(C)Cn1c(-c2ccccc2)c(C#N)c2nc[nH]c(=S)c21 [1-0129] | 1000 to 10000 nM |
| N#Cc1c(-c2cccc(C(=O)O)c2)[nH]c2c(=S)[nH]cnc12 [1-0687, 3-(7-cyano-4-thioxo-3-hydropyrrolo[4,5-d]pyrimidin-6-yl)benzoic acid] | 1000 to 10000 nM |
| N#Cc1c(-c2ccccc2)n(CCCOc2ccccc2)c2c(=S)[nH]cnc12 [1-0537] | 1000 to 10000 nM |
| N#Cc1c(-c2ccccc2)n(CCOc2ccccc2)c2c(=S)[nH]cnc12 [1-0372] | 1000 to 10000 nM |

The remaining lines, values ahead:

| IC50 | SMILES |
| --- | --- |
| < 10 nM | N#Cc1c(-c2ccccc2)n(CCC(=O)N2CCCCC2)c2c(=S)[nH]cnc12 [3-0152] |
| 10 to 30 nM | Cc1ccoc1-c1c(C#N)c2nc[nH]c(=S)c2n1CCNC(=O)C(F)(F)F [2-0601, N-{2-[7-cyano-6-(3-methyl(2-furyl))-4-thioxo(3-hydropyrrolo[3,2-d]pyrimidin-5-yl)]ethyl}-2,2,2-trifluoroacetamide] |
| 30 to 100 nM | N#Cc1c(N2CCCC2)n(CCNC(=O)c2ccc(F)cc2)c2c(=S)[nH]cnc12 [6-1031, N-[2-(7-cyano-6-pyrrolidinyl-4-thioxo(3-hydropyrrolo[3,2-d]pyrimidin-5-yl))ethyl](4-fluorophenyl)carboxamide] |
| 30 to 100 nM | Cn1cccc1-c1c(C#N)c2nc[nH]c(=S)c2n1CCNC(=O)C(F)(F)F [2-0604, N-{2-[7-cyano-6-(1-methylpyrrol-2-yl)-4-thioxo(3-hydropyrrolo[3,2-d]pyrimidin-5-yl)]ethyl}-2,2,2-trifluoroacetamide] |
| 30 to 100 nM | N#Cc1c(-c2ccco2)n(CCNC(=O)C(F)(F)F)c2c(=S)[nH]cnc12 [2-1804, N-[2-(7-cyano-6-(2-furyl)-4-thioxo(3-hydropyrrolo[3,2-d]pyrimidin-5-yl))ethyl]-2,2,2-trifluoroacetamide] |
| 30 to 100 nM | CCNC(=O)CCn1c(-c2ccccc2)c(C#N)c2nc[nH]c(=S)c21 [3-1792] |
| 10 to 30 nM | N#Cc1c(C2CC2)n(CCC(=O)O)c2c(=S)[nH]cnc12 [4-0092, 3-(7-cyano-6-cyclopropyl-4-thioxo-3-hydropyrrolo[3,2-d]pyrimidin-5-yl)propanoic acid] |
| < 10 nM | N#Cc1c(-c2ccco2)n(CCC(=O)N2CCCCC2)c2c(=S)[nH]cnc12 [3-0156] |
| 30 to 100 nM | CN(CCn1c(-c2ccccc2)c(C#N)c2nc[nH]c(=S)c21)C(=O)C(F)(F)F [2-1855] |
| 30 to 100 nM | N#Cc1c(-c2ccccc2)n(CCC(=O)N2CCCC2)c2c(=S)[nH]cnc12 [3-0148] |
| 1000 to 10000 nM | N#Cc1c(-c2ccccc2)n(CCNCc2ccccc2)c2c(=S)[nH]cnc12 [2-1775, 6-phenyl-5-{2-[benzylamino]ethyl}-4-thioxo-3-hydropyrrolo[3,2-d]pyrimidine-7-carbonitrile] |
| 30 to 100 nM | N#Cc1c(-c2ccccc2)n(CCNC(=O)Nc2cccc(C(=O)O)c2)c2c(=S)[nH]cnc12 [2-1777, 3-({N-[2-(7-cyano-6-phenyl-4-thioxo-3-hydropyrrolo[3,2-d]pyrimidin-5-yl)ethyl]carbamoyl}amino)benzoic acid] |
| 1000 to 10000 nM | CC(=O)OCCCn1c(-c2ccccc2)c(C#N)c2nc[nH]c(=O)c21 [2-0519] |
| 1000 to 10000 nM | N#Cc1c(-c2ccccc2)n(CCn2c(=O)[nH]c3ccccc3c2=O)c2c(=S)[nH]cnc12 [2-1849, 5-[2-(2,4-dioxo(1,3-dihydroquinazolin-3-yl))ethyl]-6-phenyl-4-thioxo-3-hydropyrrolo[3,2-d]pyrimidine-7-carbonitrile] |
| 1000 to 10000 nM | CCOC(=O)CCCn1c(-c2ccccc2)c(C#N)c2nc[nH]c(=O)c21 [4-0030] |
| 30 to 100 nM | N#Cc1c(-c2ccccc2)n(CCC(=O)N2CCOCC2)c2c(=S)[nH]cnc12 [3-0294] |
| 10 to 30 nM | N#Cc1c(NC2CC2)n(CCNC(=O)c2ccccc2)c2c(=S)[nH]cnc12 [6-0413, N-{2-[7-cyano-6-(cyclopropylamino)-4-thioxo(3-hydropyrrolo[3,2-d]pyrimidin-5-yl)]ethyl}benzamide] |
| 1000 to 10000 nM | N#Cc1c(-c2ccccc2)n(CCCOC(=O)c2ccco2)c2c(=O)[nH]cnc12 [2-0530] |
| 30 to 100 nM | CN(C)c1c(C#N)c2nc[nH]c(=S)c2n1CCNC(=O)c1ccc(F)cc1 [6-1029, N-{2-[6-(dimethylamino)-7-cyano-4-thioxo(3-hydropyrrolo[3,2-d]pyrimidin-5-yl)]ethyl}(4-fluorophenyl)carboxamide] |
| 1000 to 10000 nM | Cc1ccoc1-c1c(C#N)c2nc[nH]c(=O)c2n1CCNC(=O)C(F)(F)F [2-1664, N-{2-[7-cyano-6-(3-methyl(2-furyl))-4-oxo(3-hydropyrrolo[3,2-d]pyrimidin-5-yl)]ethyl}-2,2,2-trifluoroacetamide] |
| 30 to 100 nM | N#Cc1c(-c2ccccc2)n(CCNC(=O)c2ccccc2)c2c(=S)[nH]cnc12 [2-0558] |
| 1000 to 10000 nM | CC(C)(C)OC(=O)NCCCn1c(-c2ccccc2)c(C#N)c2nc[nH]c(=O)c21 [2-0208] |
| 30 to 100 nM | Cc1ccc(N)c(C(=O)NCCn2c(-c3ccccc3)c(C#N)c3nc[nH]c(=S)c32)c1 [2-0635, (2-amino-5-methylphenyl)-N-[2-(7-cyano-6-phenyl-4-thioxo(3-hydropyrrolo[3,2-d]pyrimidin-5-yl))ethyl]carboxamide] |
| 1000 to 10000 nM | CCOC(=O)CCn1c(-c2ccccc2)c(C#N)c2nc[nH]c(=S)c21 [4-0005, ethyl 3-(7-cyano-6-phenyl-4-thioxo-3-hydropyrrolo[3,2-d]pyrimidin-5-yl)propanoate] |
| < 10 nM | N#Cc1c(-c2ccccc2)n(CCC(=O)N2CCC(C(=O)O)CC2)c2c(=S)[nH]cnc12 [3-0231, 1-[3-(7-cyano-6-phenyl-4-thioxo-3-hydropyrrolo[3,2-d]pyrimidin-5-yl)propanoyl]piperidine-4-carboxylic acid] |
